Laboratory results: patent publication US10195185B2, “3-(1H-imidazo[4,5-C]pyridin-2-yl)-1H-pyrazolo[4,3-B]pyridines and therapeutic uses thereof” (Samumed, LLC, priority 2015, dated 2019)

Tests used:
Format in all cases: cell-based
[1] = tested on: Wnt activity (Wnt-responsive human Sp5 promoter, TCF/LEF binding sites) in SW480 colon carcinoma cells; assay: Wnt activity screening assay: Sp5-Luc luciferase reporter gene in SW480 cells; details: for EC50: 10-point dose-response from 10 μM, incubated overnight; for inhibition at 10 µM: given for EC50 of >10 μM, read-out: percent inhibition at 10 μM
Method in brief: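 First, hygromycin-selected SW480 Sp5-Luc reporter cells are seeded in medium with 1% fetal bovine serum and exposed overnight to compound (up to 10 μM, 0.1% DMSO). Next, luciferase signal is read by luminescence. Finally, EC50 is fitted, or percent inhibition at 10 μM is reported above 10 μM.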

SW480 colon cancer cells = assay: Cell viability assay (CellTiter-Blue), four days; details: Homo sapiens, 96 h; for inhibition at 10 µM: read-out: percent inhibition at 10 μM (given for EC50 of >10 μM); for EC50: CellTiter-Blue cell viability
Method in brief: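 Four-day viability readout in SW480 cells: compound at 0.0045–10 μM (1:3 series), DMSO controls in eight replicates, CellTiter-Blue fluorescence after ~3 h. Values are regression-derived EC50s, or percent inhibition at 10 μM when EC50 exceeds 10 μM.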

[2] = tested on: IL-6 in human monocyte cell line (THP-1 cells); assay: IL-6 inhibition in LPS-stimulated THP-1 cells (HTRF); details: IL-6 in LPS-stimulated THP-1 cells; for EC50: HTRF; for inhibition at 10 µM: read-out: percent inhibition in brackets beside EC50 >10 μM
Method in brief: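 Readout is the 665/620 nm HTRF ratio for secreted IL-6, normalized to DMSO wells, with EC50 from a variable-slope four-parameter fit, or % inhibition at 10 μM when above 10 μM. Cells (1% FBS, 24 h beforehand) got compound for 2 h, then LPS 500 ng/mL for 22 h at 37° C; top dose 10 μM, 0.1% DMSO.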

SMILES | EC50 [1] | EC50 (SW480 colon cancer cells) | EC50 [2] | inhibition at 10 µM (SW480 colon cancer cells) | inhibition at 10 µM [1] | inhibition at 10 µM [2]
CN1CCN(c2nccc3[nH]c(-c4n[nH]c5ccc(-c6cnccn6)nc45)nc23)CC1 [Compound 648, 3-(4-(4-Methylpiperazin-1-yl)-1H-imidazo[4,5-c]pyridin-2-yl)-5-(pyrazin-2-yl)-1H-pyrazolo[4,3-b]pyridine] | > 10 µM | > 10 µM | 0.998 µM | 5.4% | 1% | 
Cc1ccncc1-c1ccc2[nH]nc(-c3nc4c(-c5ccncc5)nccc4[nH]3)c2n1 [Compound 117, 5-(4-Methylpyridin-3-yl)-3-(4-(pyridin-4-yl)-1H-imidazo[4,5-c]pyridin-2-yl)-1H-pyrazolo[4,3-b]pyridine] | > 10 µM | > 10 µM | > 10 µM | 19.6% | 28% | 33.1%
CC(C)(C)CC(=O)Nc1cncc(-c2ccc3[nH]nc(-c4nc5cnccc5[nH]4)c3n2)c1 [Compound 268, N-(5-(3-(1H-Imidazo[4,5-c]pyridin-2-yl)-1H-pyrazolo[4,3-b]pyridin-5-yl)pyridin-3-yl)-3,3-dimethylbutanamide] | > 10 µM | > 10 µM | > 10 µM | 0% | 9.5% | 19%
CCNCc1cncc(-c2ccc3[nH]nc(-c4nc5c(-c6ccccn6)nccc5[nH]4)c3n2)c1 [Compound 146, N-((5-(3-(4-(Pyridin-2-yl)-1H-imidazo[4,5-c]pyridin-2-yl)-1H-pyrazolo[4,3-b]pyridin-5-yl)pyridin-3-yl)methyl)ethanamine] | > 10 µM | 4.76 µM | > 10 µM |  | 35.5% | 6.7%
CS(=O)(=O)NCc1cc(F)cc(-c2nccc3[nH]c(-c4n[nH]c5ccc(-c6cncc(NC(=O)CC7CCNCC7)c6)nc45)nc23)c1 [Compound 769, N-(5-(3-(4-(3-Fluoro-5-(methylsulfonamidomethyl)phenyl)-1H-imidazo[4,5-c]pyridin-2-yl)-1H-pyrazolo[4,3-b]pyridin-5-yl)pyridin-3-yl)-2-(piperidin-4-yl)acetamide] | > 10 µM | > 10 µM | > 10 µM | 7.7% | 9.8% | 33.4%
c1cc(-c2ccc3[nH]nc(-c4nc5c(-c6ccncc6)nccc5[nH]4)c3n2)ccn1 [Compound 130, 5-(pyridin-4-yl)-3-(4-(pyridin-4-yl)-1H-imidazo[4,5-c]pyridin-2-yl)-1H-pyrazolo[4,3-b]pyridine] | > 10 µM | > 10 µM | 0.203 µM | 0% | 7.5% | 
CN1CCN(c2nccc3[nH]c(-c4n[nH]c5ccc(-c6cncc(N)c6)nc45)nc23)CC1 [Compound 227, 5-(3-(4-(4-Methylpiperazin-1-yl)-1H-imidazo[4,5-c]pyridin-2-yl)-1H-pyrazolo[4,3-b]pyridin-5-yl)pyridin-3-amine] | > 10 µM | > 10 µM | > 10 µM | 0% | 15.3% | 32.3%
CCCC(=O)Nc1cncc(-c2ccc3[nH]nc(-c4nc5c(-c6ccncc6)nccc5[nH]4)c3n2)c1 [Compound 129, N-(5-(3-(4-(Pyridin-4-yl)-1H-imidazo[4,5-c]pyridin-2-yl)-1H-pyrazolo[4,3-b]pyridin-5-yl)pyridin-3-yl)butyramide] | > 10 µM | > 10 µM | > 10 µM | 0% | 2.2% | 12.5%
O=C(Nc1cncc(-c2ccc3[nH]nc(-c4nc5c(-c6ccccc6F)nccc5[nH]4)c3n2)c1)C1CCCC1 [Compound 78, N-(5-(3-(4-(2-Fluorophenyl)-1H-imidazo[4,5-c]pyridin-2-yl)-1H-pyrazolo [4,3-b]pyridin-5-yl)pyridin-3-yl)cyclopentanecarboxamide] | > 10 µM | > 10 µM | > 10 µM | 19.8% | 14.8% | 29.7%
CC(C)C(=O)Nc1cncc(-c2ccc3[nH]nc(-c4nc5c(-c6ccccc6F)nccc5[nH]4)c3n2)c1 [Compound 65, N-(5-(3-(4-(2-fluorophenyl)-1H-imidazo[4,5-c]pyridin-2-yl)-1H-pyrazolo [4,3-b]pyridin-5-yl)pyridin-3-yl)isobutyramide] | > 10 µM | > 10 µM | > 10 µM | 8.7% | 2.7% | 40.4%
O=C(Cc1ccccc1)Nc1cncc(-c2ccc3[nH]nc(-c4nc5cnccc5[nH]4)c3n2)c1 [Compound 262, N-(5-(3-(1H-imidazo[4,5-c]pyridin-2-yl)-1H-pyrazolo[4,3-b]pyridin-5-yl)pyridin-3-yl)-2-phenylacetamide] | > 10 µM | > 10 µM | > 10 µM | 2.2% | 12.9% | 35.4%

The next lines start with results.

EC50 [1] | EC50 (SW480 colon cancer cells) | EC50 [2] | SMILES | inhibition at 10 µM (SW480 colon cancer cells) | inhibition at 10 µM [1] | inhibition at 10 µM [2]
4.41 µM | > 10 µM | 7.22 µM | CN(C)CCNc1cc(F)cc(-c2nccc3[nH]c(-c4n[nH]c5ccc(-c6cncc(OCCN7CCCC7)c6)nc45)nc23)c1 [Compound 786, N^1-(3-Fluoro-5-(2-(5-(5-(2-(pyrrolidin-1-yl)ethoxy)pyridin-3-yl)-1H-pyrazolo[4,3-b]pyridin-3-yl)-1H-imidazo[4,5-c]pyridin-4-yl)-5phenyl)-N^2,N^2-dimethylethane-1,2-diamine] | 15.9% |  | 
> 10 µM | > 10 µM | > 10 µM | Oc1cncc(-c2ccc3[nH]nc(-c4nc5cnccc5[nH]4)c3n2)c1 [Compound 661, 5-(3-(1H-Imidazo[4,5-c]pyridin-2-yl)-1H-pyrazolo[4,3-b]pyridin-5-yl) pyridin-3-ol] | 13.5% | 10.7% | 31.3%
> 10 µM | > 10 µM | > 10 µM | c1cncc(-c2ccc3[nH]nc(-c4nc5c(-c6cccnc6)nccc5[nH]4)c3n2)c1 [Compound 88, 5-(Pyridin-3-yl)-3-(4-(pyridin-3-yl)-1H-imidazo[4,5-c]pyridin-2-yl)-1H-pyrazolo[4,3-b]pyridine] | 8.5% | 34.4% | 20.4%
4.2 µM | 3.8 µM | > 10 µM | CCC(=O)Nc1cncc(-c2ccc3[nH]nc(-c4nc5c(N6CCCCC6)nccc5[nH]4)c3n2)c1 [Compound 169, N-(5-(3-(4-(Piperidin-1-yl)-1H-imidazo[4,5-c]pyridin-2-yl)-1H-pyrazolo [4,3-b]pyridin-5-yl)pyridin-3-yl)propionamide] |  |  | 42.6%
0.745 µM | 1.57 µM | > 10 µM | COc1cncc(-c2ccc3[nH]nc(-c4nc5c(-c6ccoc6)nccc5[nH]4)c3n2)c1 [Compound 692, 3-(4-(Furan-3-yl)-1H-imidazo[4,5-c]pyridin-2-yl)-5-(5-methoxypyridin-3-yl)-1H-pyrazolo[4,3-b]pyridine] |  |  | 44%
0.456 µM | 0.775 µM | > 10 µM | Cn1cc(-c2ccc3[nH]nc(-c4nc5c(-c6cccs6)nccc5[nH]4)c3n2)cn1 [Compound 700, 5-(1-Methyl-1H-pyrazol-4-yl)-3-(4-(thiophen-2-yl)-1H-imidazo[4,5-c]pyridin-2-yl)-1H-pyrazolo[4,3-b]pyridine] |  |  | 0%
0.206 µM | 0.638 µM | 1.33 µM | Cc1ccncc1-c1ccc2[nH]nc(-c3nc4c(-c5ccsc5)nccc4[nH]3)c2n1 [Compound 285, 5-(4-Methylpyridin-3-yl)-3-(4-(thiophen-3-yl)-1H-imidazo[4,5-c]pyridin-2-yl)-1H-pyrazolo[4,3-b]pyridine] |  |  | 
3.83 µM | 4.3 µM | 1.46 µM | c1cc2[nH]c(-c3n[nH]c4ccc(-c5cncc(OCCN6CCCC6)c5)nc34)nc2c(-c2ccoc2)n1 [Compound 690, 3-(4-(Furan-3-yl)-1H-imidazo[4,5-c]pyridin-2-yl)-5-(5-(2-(pyrrolidin-1-yl)ethoxy)pyridin-3-yl)-1H-pyrazolo[4,3-b]pyridine] |  |  | 
2.09 µM | 1.1 µM | 3.67 µM | CCCC(=O)Nc1cncc(-c2ccc3[nH]nc(-c4nc5c(-c6ccsc6)nccc5[nH]4)c3n2)c1 [Compound 297, N-(5-(3-(4-(Thiophen-3-yl)-1H-imidazo[4,5-c]pyridin-2-yl)-1H-pyrazolo [4,3-b]pyridin-5-yl)pyridin-3-yl)butyramide] |  |  | 
1.11 µM | 1.08 µM | > 10 µM | Fc1ccccc1-c1nccc2[nH]c(-c3n[nH]c4ccc(-c5cncc(CNCC6CCCC6)c5)nc34)nc12 [Compound 81, 1-Cyclopentyl-N-((5-(3-(4-(2-fluorophenyl)-1H-imidazo[4,5-c]pyridin-2-yl)-1H-pyrazolo[4,3-b]pyridin-5-yl)pyridin-3-yl)methyl)methanamine] |  |  | 54.6%
